Experimental data: ChEMBL document CHEMBL1949499, “Nicotinic acids: liver-targeted SCD inhibitors with preclinical anti-diabetic efficacy” (Bioorg Med Chem Lett, 2011)
Calls of active or inactive are those of the source. No cut-off for these calls is given here.

Columns and labels:
Stearoyl-CoA desaturase = biological target: T1, Stearoyl-CoA desaturase (Homo sapiens, UniProt O00767); test: Inhibition of human SCD1 expressed in human HepG2 cells assessed as conversion of [14C]stearic acid to [14C]oleic acid; format: cell-based
T1 sequence (O00767 whole entry): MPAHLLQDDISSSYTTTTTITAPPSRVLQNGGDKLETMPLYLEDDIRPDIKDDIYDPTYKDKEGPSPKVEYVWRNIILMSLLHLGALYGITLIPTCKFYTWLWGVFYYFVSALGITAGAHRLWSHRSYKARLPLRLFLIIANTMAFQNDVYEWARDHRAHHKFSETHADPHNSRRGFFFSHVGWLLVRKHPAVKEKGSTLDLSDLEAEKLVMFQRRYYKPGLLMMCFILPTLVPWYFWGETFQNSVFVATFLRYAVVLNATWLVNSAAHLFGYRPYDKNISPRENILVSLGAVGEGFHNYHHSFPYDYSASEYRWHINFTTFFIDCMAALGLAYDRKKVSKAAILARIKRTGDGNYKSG

[1] = Ratio of drug uptake in left median liver lobe to harderian gland in C57/BL6 mouse at 10 mg/kg, po after 6 hrs; format: ADME, organism-based; design: dose 10 mg/kg, route oral; settings: in vivo
Acyl-CoA desaturase 1 [2] = biological target: T2, Acyl-CoA desaturase 1 (Rattus norvegicus, UniProt P07308); test: Inhibition of SCD1 in Sprague-Dawley rat hepatocytes assessed as conversion of [14C]oleic acid formation by HPLC analysis; format: cell-based, Hepatocyte
T2 sequence (P07308 whole entry): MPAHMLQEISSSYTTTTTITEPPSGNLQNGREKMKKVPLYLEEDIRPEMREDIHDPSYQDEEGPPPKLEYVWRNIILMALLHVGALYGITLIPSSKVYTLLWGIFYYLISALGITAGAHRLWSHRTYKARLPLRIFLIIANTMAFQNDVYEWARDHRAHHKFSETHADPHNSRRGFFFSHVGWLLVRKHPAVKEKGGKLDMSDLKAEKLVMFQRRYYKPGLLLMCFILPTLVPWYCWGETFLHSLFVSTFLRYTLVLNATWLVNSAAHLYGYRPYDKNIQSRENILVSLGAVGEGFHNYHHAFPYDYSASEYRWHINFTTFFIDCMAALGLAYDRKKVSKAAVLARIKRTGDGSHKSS

Acyl-CoA desaturase 1 [3] = biological target: T2, Acyl-CoA desaturase 1; test: Inhibition of rat SCD1
Mus musculus [4] = test: Acute antidiabetic activity in high fat diet fed C57/BL6 mouse eDIO model assessed as increase in glucose clearance at 100 mg/kg, po administered 1 hr prior to glucose challenge by oGTT assay; format: functional
[5] = Drug uptake in high sucrose/fat free diet fed C57/BL6 mouse liver at 100 mg/kg, po after 3 hrs; format: ADME, organism-based; design: dose 100 mg/kg, route oral; settings: read-out: Drug uptake
[6] = Plasma concentration in high sucrose/fat free diet fed C57/BL6 mouse at 100 mg/kg, po after 3 hrs; format: ADME, organism-based; design: dose 100 mg/kg, route oral
Mus musculus [7] = test: Inhibition of SCD activity in high sucrose/fat free diet fed C57/BL6 mouse liver assessed as reduction in conversion of [14C]stearic acid to [14C]oleic acid at 100 mg/kg, po; format: functional
[8] = Drug uptake in high fat diet fed C57/BL6 mouse eDIO model whole blood at 100 mg/kg, po after 3 hrs; format: ADME, organism-based; design: dose 100 mg/kg, route oral; settings: read-out: Drug uptake
Nucleic Acid = test: Ratio of drug uptake in high fat diet fed C57/BL6 mouse eDIO model whole blood to high sucrose/fat free diet fed C57/BL6 mouse plasma; format: ADME; settings: in vivo
HepG2 = test: Selectivity ratio of IC50 for human SCD1 expressed in human HepG2 cells to IC50 for rat SCD1 in Sprague-Dawley rat hepatocytes; format: cell-based

Structure (SMILES)	IC50 (Stearoyl-CoA desaturase)	IC50 (Acyl-CoA desaturase 1 [2])	IC50 (Acyl-CoA desaturase 1 [3])	also measured
O=C(O)c1cncc(-c2cnc(N3CCC(Oc4cc(F)ccc4Br)CC3)cn2)c1	6720 nM	1360 nM	69 nM	Ratio [1]: 12
O=C(O)c1cncc(-c2cnc(N3CCC(Oc4cc(F)ccc4Br)CC3)nn2)c1	4470 nM	268 nM	20 nM	Ratio [1]: 1.5
O=C(O)c1cncc(-c2ccc(N3CCC(Oc4ccccc4Cl)CC3)nn2)c1	> 10000 nM	1890 nM	166 nM	
O=C(O)c1cncc(-c2cnc(N3CCC(Oc4cc(F)ccc4Br)CC3)nc2)c1	9420 nM	3050 nM	77 nM	Ratio [1]: 8
O=C(O)c1cncc(-c2ccc(N3CCC(Oc4c(F)cc(F)cc4Br)CC3)nn2)c1			> 20000 nM	Activity (Mus musculus [4]): inactive; concentration at 3 h [5]: 30200 nM; concentration at 3 h [6]: 750 nM; inhibition (Mus musculus [7]): inactive; concentration at 3 h [8]: 730 nM; Ratio (Nucleic Acid): < 2
O=C(O)c1cncc(-c2ccc(N3CCC(Oc4cc(F)c(F)cc4Br)CC3)nn2)c1	8260 nM	563 nM	15 nM	
O=C(O)c1cncc(-c2ccc(N3CCC(Oc4ccccc4C(F)(F)F)CC3)cc2)c1			8440 nM	
O=C(O)Cc1cncc(-c2ccc(N3CCC(Oc4cc(F)ccc4Br)CC3)nn2)c1	780 nM	75 nM	20 nM	Ratio IC50 (HepG2): 10; Ratio [1]: 4
O=C(O)c1cncc(-c2ccc(N3CCC(Oc4cc(F)ccc4Br)CC3)nc2)c1	2410 nM	1930 nM	24 nM	Ratio [1]: 3
O=C(O)c1cncc(-c2ccc(N3CCC(Oc4cc(F)ccc4Br)CC3)cn2)c1			1220 nM	
O=C(O)c1cncc(-c2ccc(N3CCC(Oc4cc(F)ccc4Br)CC3)nn2)n1			772 nM	
O=C(O)c1ccc(-c2ccc(N3CCC(Oc4ccccc4C(F)(F)F)CC3)nn2)cc1	550 nM		105 nM	
O=C(O)c1cccc(-c2ccc(N3CCC(Oc4ccccc4C(F)(F)F)CC3)nn2)c1	1110 nM		107 nM	
O=C(O)c1ccc(-c2ccc(N3CCC(Oc4cc(F)ccc4Br)CC3)nn2)nc1	128 nM	159 nM	8 nM	
O=C(O)c1cncc(-c2ccc(N3CCC(Oc4ccccc4Br)CC3)nn2)c1	18300 nM	1640 nM	47 nM	Ratio IC50 (HepG2): 11
O=C(O)Cc1ccc(N2CCC(Oc3ccccc3C(F)(F)F)CC2)nn1			2680 nM	
O=C(O)c1cncc(-c2ccc(N3CCC(Oc4ccccc4I)CC3)nn2)c1	5080 nM	1000 nM	27 nM	Ratio IC50 (HepG2): 5
O=C(O)c1cncc(-c2ccc(N3CCC(Oc4ccccc4C(F)(F)F)CC3)nn2)c1	> 20000 nM	1300 nM	129 nM	
FC(F)(F)c1ccccc1OC1CCN(c2ccc(-c3cncc(-c4nnn[nH]4)c3)nn2)CC1			11000 nM	
O=C(O)c1ccc(N2CCC(Oc3ccccc3C(F)(F)F)CC2)nn1			> 10000 nM	
